From patent EP1541198A1, “Cycloalkyl compounds as anti-inflammatory, immunomodulatory and anti-proliferatory agents” (4SC AG, priority 2003, dated 2005)

Each molecule was assayed against T1, human DHODH (Homo sapiens, UniProt Q02127) (assay: Inhibition Assay of DHODH activity). Details: recombinant human DHODH; 50 mM TrisHCl, pH 8,0, 30°C; decrease in absorption at 600 nm.
T1 construct: Prof; M. Löffler, Marburg, Germany (gift, not a commercial vendor)
Type: biochemical
Description: 4. Inhibition Assay of DHODH activity
The standard assay mixture contained 50 µM decyclo ubichinone, 100 µM dihydroorotate, 60 µM 2,6-dichloroindophenol, as well as 20 mU DHODH. The volume activity of the recombinant enzyme used was 30 U/ml. Measurements were conducted in 50 mM TrisHCl (150 mM KCl, 0,1% Triton X-100, pH 8,0) at 30°C in a final volume of 1 ml. The components were mixed, and the reaction was started by adding dihydroorotate. The course of reaction was followed by spectrophotometrically measuring the decrease in absorption at 600 nm for 2 min. Inhibitory studies were conducted in a standard assay with additional variable amounts of inhibitor. […] These investigations were carried out with recombinant human as well as with recombinant murine DHODH provided by Prof. M. Löffler, Marburg, Germany [M. Löffler, Chem. Biol. Interact.

T1 sequence (Q02127 whole entry): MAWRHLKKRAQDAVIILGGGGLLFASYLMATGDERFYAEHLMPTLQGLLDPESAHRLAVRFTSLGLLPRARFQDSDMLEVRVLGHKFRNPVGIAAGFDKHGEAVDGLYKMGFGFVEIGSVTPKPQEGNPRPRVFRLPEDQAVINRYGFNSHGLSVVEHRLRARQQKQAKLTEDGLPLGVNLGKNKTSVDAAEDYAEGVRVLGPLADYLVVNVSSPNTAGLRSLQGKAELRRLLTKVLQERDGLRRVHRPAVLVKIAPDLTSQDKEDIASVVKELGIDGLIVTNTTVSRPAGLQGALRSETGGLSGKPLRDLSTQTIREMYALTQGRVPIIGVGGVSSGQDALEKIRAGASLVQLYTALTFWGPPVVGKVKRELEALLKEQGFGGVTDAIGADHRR

SMILES	IC50
O=C(O)C1CCCC1C(=O)Nc1c(F)c(F)c(-c2cccc(OC(F)(F)F)c2)c(F)c1F (stereo not drawn) [Example 8, 2-(2,3,5,6-Tetrafluoro 3'-trifluoromethoxy-biphenyl-4-ylcarbamoyl)-cyclo-pentane carboxylic acid]	< 5 µM
CCOc1cccc(-c2cc(F)c(NC(=O)C3CCCC3C(=O)O)c(F)c2)c1 (stereo not drawn) [Example 5, 2-(3'-Ethoxy-3,5-difluoro-biphenyl-4-ylcarbamoyl)-cyclopentane carboxylic acid]	< 5 µM
O=C(O)C1CCCC1C(=O)Nc1ccc(-c2ccccc2)cc1 (stereo not drawn) [Example 7, 2-(Biphenyl-4-ylcarbamoyl)-cyclopentane carboxylic acid]	< 5 µM
O=C(O)C1CCCC1C(=O)Nc1c(F)cc(-c2cccc(OC(F)(F)F)c2)cc1F (stereo not drawn) [Example 9, 2-(3,5-Difluoro-3'-trifluoromethoxy-biphenyl-4-ylcarbamoyl)-cyclopentane carboxylic acid]	< 5 µM
COc1ccc(-c2cc(F)c(NC(=O)C3CCCC3C(=O)O)c(F)c2)c(OC)c1 (stereo not drawn) [Example 4, 2-(3,5-Difluoro-2',4'-dimethoxy-biphenyl-4-ylcarbamoyl)-cyclopentane carboxylic acid]	5 to 20 µM
COc1cccc(-c2ccc(NC(=O)[C@@H]3CCC[C@H]3C(=O)O)c(F)c2)c1 (relative stereo) [Example 1, trans 2-(3-Fluoro-3' methoxy-biphenyl-4-ylcarbamoyl)-cyclopentane carboxylic acid]	5 to 20 µM
O=C(O)C1CCCC1C(=O)Nc1c(F)cc(-c2ccccc2Cl)cc1F (stereo not drawn) [Example 3, 2-(2'-Chloro-3,5-difluoro-biphenyl-4-ylcarbamoyl)-cyclopentane carboxylic acid]	< 5 µM
COc1cccc(-c2ccc(NC(=O)[C@H]3CCC[C@H]3C(=O)O)c(F)c2)c1 (relative stereo) [Example 2, cis 2-(3-Fluoro-3' methoxy-biphenyl-4-ylcarbamoyl)-cyclopentane carboxylic acid]	< 5 µM
CCOc1ccccc1-c1cc(F)c(NC(=O)C2CCCC2C(=O)O)c(F)c1 (stereo not drawn) [Example 6, 2-(2'-Ethoxy-3,5-difluoro-biphenyl-4-ylcarbamoyl)-cyclopentane carboxylic acid]	5 to 20 µM
